≈ marks a conversion by molar mass, not a printed value. Calls of active or inactive are those of the source. The rule behind the calls is not given here.
Key:
Psoas muscle [1] = assay: Increase in psoas muscle force in rabbit skinned single fiber preparation at a calcium concentration that produces a force increase that is 25% of the maximum response in a control preparation by skinned fast skeletal muscle fiber assay; type: functional; conditions: Oryctolagus cuniculus
Psoas muscle [2] = assay: Activation of fast twitch skeletal muscle in rabbit psoas muscle myofibrils by measuring increase in myofibril ATPase activity at 25% calcium concentration; type: functional; conditions: Oryctolagus cuniculus
[3] = Thermodynamic solubility of the compound; type: physicochemical; conditions: read-out: Therm_solubility
hERG (KCNH2) = hERG (KCNH2) (Homo sapiens, UniProt Q12809); assay: Displacement of [3H]astemizole from human ERG expressed in HEK293 cells at 100 uM relative to control; type: cell-based; conditions: HEK293 cells that express hERG, probe [3H]astemizole
[4] = Metabolic stability in human liver microsomes assessed as intrinsic clearance measured after 90 mins by HPLC/MS/MS analysis; type: ADME, Microsome; conditions: read-out: CLH
[5] = target: Voltage-gated inwardly rectifying potassium channel KCNH2 (Homo sapiens, UniProt Q12809); assay: Inhibition of human ERG expressed in HEK293 cells at -80 mV holding potential by patch clamp assay; type: cell-based
[6] = Clearance in male Sprague-Dawley rat at 1 mg/kg, po administered as single dose measured up to 24 hrs by HPLC analysis; type: ADME, organism-based; conditions: in vivo
[7] = Plasma protein binding in male rat assessed as unbound fraction; type: ADME, cell-free
[8] = Intrinsic clearance in male rat hepatocytes; type: ADME, cell-based, Hepatocyte; conditions: read-out: CLH
[9] = Volume of distribution at steady state in male Sprague-Dawley rat at 1 mg/kg, po administered as single dose measured up to 24 hrs by HPLC analysis; type: ADME, organism-based; conditions: in vivo
[10] = Oral bioavailability in male Sprague-Dawley rat at 1 mg/kg administered as single dose measured up to 24 hrs by HPLC analysis; type: ADME, organism-based; conditions: in vivo
[11] = Metabolic stability in male rat liver microsomes assessed as intrinsic clearance measured after 90 mins by HPLC/MS/MS analysis; type: ADME, Microsome; conditions: read-out: CLH
[12] = Drug distribution in Sprague-Dawley rat extensor digitorum longus to blood ratio at 100 mg/kg, po by HPLC analysis; type: ADME, organism-based
[13] = Volume of distribution at steady state in male Sprague-Dawley rat at 3 mg/kg, po administered as single dose measured up to 24 hrs by HPLC analysis; type: ADME, organism-based; conditions: in vivo
[14] = Clearance in male Sprague-Dawley rat at 3 mg/kg, po administered as single dose measured up to 24 hrs by HPLC analysis; type: ADME, organism-based; conditions: in vivo
[15] = target: T1, Nuclear receptor subfamily 1 group I member 2 (Homo sapiens, UniProt O75469); assay: Transactivation of human PXR transfected in DPX2 cells assessed as CYP3A4 induction at 10 uM by luciferase reporter gene assay; type: ADME, cell-based; conditions: dpx2, 10 µM
T1 sequence (O75469 whole entry): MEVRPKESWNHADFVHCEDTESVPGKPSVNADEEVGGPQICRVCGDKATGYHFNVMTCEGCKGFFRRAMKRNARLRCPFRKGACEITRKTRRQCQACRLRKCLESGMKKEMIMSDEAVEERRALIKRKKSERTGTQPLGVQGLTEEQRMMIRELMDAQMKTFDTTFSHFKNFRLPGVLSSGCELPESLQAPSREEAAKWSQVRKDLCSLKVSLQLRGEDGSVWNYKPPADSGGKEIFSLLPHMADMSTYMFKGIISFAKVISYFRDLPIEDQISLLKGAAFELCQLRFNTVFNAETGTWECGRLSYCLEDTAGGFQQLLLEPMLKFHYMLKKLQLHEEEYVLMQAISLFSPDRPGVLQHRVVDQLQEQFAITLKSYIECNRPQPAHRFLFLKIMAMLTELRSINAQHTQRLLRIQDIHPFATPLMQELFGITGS

[16] = Drug distribution in Sprague-Dawley rat brain to blood ratio at 100 mg/kg, po by HPLC analysis; type: ADME, organism-based
[17] = Efflux ratio of apparent permeability in human Caco-2 cells; type: ADME, cell-based
[18] = Drug distribution in Sprague-Dawley rat Soleus muscle to blood ratio at 100 mg/kg, po by HPLC analysis; type: ADME, organism-based
[19] = Drug distribution in Sprague-Dawley rat plasma to blood ratio at 100 mg/kg, po by HPLC analysis; type: ADME, organism-based; conditions: in vivo
[20] = tested on: Extensor digitorum longus; assay: Increase in muscle tension in rat extensor digitorum longus muscle rat model assessed as free plasma concentration to increase muscle tension at subtetanic nerve stimulation rate of 30 Hz; type: functional, tissue-based

Sequence of hERG (KCNH2) (Q12809 whole entry): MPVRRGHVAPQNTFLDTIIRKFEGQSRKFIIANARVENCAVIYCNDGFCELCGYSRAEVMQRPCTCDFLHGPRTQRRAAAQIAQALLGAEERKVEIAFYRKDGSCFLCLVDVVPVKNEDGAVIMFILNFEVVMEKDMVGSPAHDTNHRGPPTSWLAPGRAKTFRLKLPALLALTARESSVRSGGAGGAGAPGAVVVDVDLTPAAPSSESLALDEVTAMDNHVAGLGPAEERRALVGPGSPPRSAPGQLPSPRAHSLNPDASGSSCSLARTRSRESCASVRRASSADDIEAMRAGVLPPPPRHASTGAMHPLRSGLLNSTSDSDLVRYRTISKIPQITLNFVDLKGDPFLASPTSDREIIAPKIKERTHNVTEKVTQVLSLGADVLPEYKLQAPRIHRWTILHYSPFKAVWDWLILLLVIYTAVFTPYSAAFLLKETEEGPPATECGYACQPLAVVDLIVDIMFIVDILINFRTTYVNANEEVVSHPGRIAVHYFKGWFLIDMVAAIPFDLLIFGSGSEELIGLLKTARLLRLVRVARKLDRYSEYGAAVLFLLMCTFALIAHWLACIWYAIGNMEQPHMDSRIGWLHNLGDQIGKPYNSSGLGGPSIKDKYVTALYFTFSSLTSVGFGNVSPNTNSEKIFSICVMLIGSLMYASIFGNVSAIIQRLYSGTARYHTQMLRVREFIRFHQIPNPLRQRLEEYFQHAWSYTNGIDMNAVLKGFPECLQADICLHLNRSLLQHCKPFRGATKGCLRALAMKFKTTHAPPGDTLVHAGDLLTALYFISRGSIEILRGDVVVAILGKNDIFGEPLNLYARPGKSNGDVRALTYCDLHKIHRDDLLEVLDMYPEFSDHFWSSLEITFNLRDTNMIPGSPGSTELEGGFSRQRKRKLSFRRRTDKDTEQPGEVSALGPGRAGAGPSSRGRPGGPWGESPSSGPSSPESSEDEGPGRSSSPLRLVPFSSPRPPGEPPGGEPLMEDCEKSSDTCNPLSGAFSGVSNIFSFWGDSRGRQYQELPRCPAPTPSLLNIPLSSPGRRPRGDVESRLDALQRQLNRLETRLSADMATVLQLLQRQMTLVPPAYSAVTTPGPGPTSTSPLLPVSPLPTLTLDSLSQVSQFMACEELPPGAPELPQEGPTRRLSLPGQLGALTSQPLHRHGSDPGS
Sequence of Voltage-gated inwardly rectifying potassium channel KCNH2 (Q12809 whole entry): as above

| SMILES | EC30 (Psoas muscle [1]) | EC40 (Psoas muscle [2]) [nM] | CLint scaled [4] [mL/min/kg] | other results |
| --- | --- | --- | --- | --- |
| CC(C)(CNc1nsc(-c2cccc(C(N)=O)c2)n1)c1ccc(F)cc1 | 7100 nM | 500 |  |  |
| CC(CNc1nc(Cc2ccc(F)cc2)ns1)c1ccc(Cl)cc1 (configuration not stated) | 16700 nM | 1100 |  | solubility thermodynamic [3]: < 27 µM |
| NC(=O)c1cc(-c2ccc(NCC3(c4ncccc4F)CCC3)nn2)ncn1 |  | 4400 |  |  |
| NC(=O)c1ccn(-c2cnc(NCC3(c4ncccc4F)CCC3)nc2)c1 | 1400 nM | 1300 | < 14 | inhibition at 100 µM (hERG (KCNH2)): 43% |
| CC(C)(CNc1nc(-c2ccc(C(N)=O)cc2)ns1)c1ccc(F)cc1 | 2300 nM | 500 | 9 | solubility thermodynamic [3]: < 27 µM |
| CC(C)(CNc1ccc(-c2cccc(C(N)=O)c2)nn1)c1ccc(F)cc1 | 3000 nM | 1200 | 8 | solubility thermodynamic [3]: 86 µM (≈ 31.3 µg/mL) |
| NC(=O)c1cccc(-c2ccc(NCC3(c4ccc(F)cn4)CCC3)nn2)c1 | 2300 nM | 3500 | < 7 |  |
| Fc1ccc(Cc2nsc(NCCc3ccc(Cl)cc3)n2)cc1 | 13700 nM | 4300 |  |  |
| CC(C)(CNc1cnc(-c2cccc(C(N)=O)c2)cn1)c1ccc(F)cc1 | inactive | 800 |  |  |
| NC(=O)c1cccc(-c2ccc(NCC3(c4ccccn4)CCC3)nn2)c1 | 900 nM | 500 | < 7 |  |
| CC(C)(CNc1ccc(-c2cccc(C(N)=O)c2)nc1)c1ccc(F)cc1 |  | 300 |  |  |
| NC(=O)c1cnc(-c2ccc(NCC3(c4ncccc4F)CCC3)nn2)o1 | 5400 nM | 3900 |  |  |
| CC(C)CCNc1nc(Cc2ccc(F)cc2)ns1 |  | > 49000 |  |  |
| CN(C)C(=O)c1cnn(-c2ccc(NCC3(c4ncccc4F)CCC3)nn2)c1 |  | 20200 |  |  |
| Fc1ccc(CCNc2nc(Cc3ccc(F)cc3)ns2)cc1 |  | 9900 |  |  |
| CC(C)(CNc1cnc(-c2cccc(C(N)=O)c2)nc1)c1ccc(F)cc1 |  | 3600 |  |  |
| NC(=O)c1cnn(-c2ccc(NCC3(c4ncccc4F)CCC3)nn2)c1 | 700 nM | 500 | < 14 | IC50 [5]: > 100000 nM; inhibition at 100 µM (hERG (KCNH2)): 19%; CL/F [6]: 136 mL/min/kg; fraction unbound [7]: 0.42; CLint scaled [8]: 378 mL/min/kg; Vdss [9]: 2.2 L/kg; bioavailability [10]: 12%; CLint scaled [11]: 30 mL/min/kg |
| CC(C)(CNc1ccc(-c2cccc(C(N)=O)c2)cn1)c1ccc(F)cc1 | 1500 nM | 500 | 7 |  |
| CC(C)(CNc1nc(Cc2ccc(F)cc2)ns1)c1ccc(Cl)cc1 | 7400 nM | 600 |  |  |
| CC(C)(CNc1ncc(-c2cccc(C(N)=O)c2)cn1)c1ccc(F)cc1 | 7800 nM | 8700 | 6 |  |

| SMILES | EC30 (Psoas muscle [1]) | EC40 (Psoas muscle [2]) [nM] | CLint scaled [4] [mL/min/kg] | other results |
| --- | --- | --- | --- | --- |
| NC(=O)c1ccn(-c2ccc(NCC3(c4ncccc4F)CCC3)nn2)n1 |  | 22700 |  |  |
| CC(Cc1ccc(Cl)cc1)Nc1nc(Cc2ccc(F)cc2)ns1 (configuration not stated) |  | 22100 |  |  |
| CNC(=O)c1cccc(-c2cnc(NC[C@]3(c4ncccc4F)C[C@H](F)C3)nc2)c1 | 500 nM | 900 | < 7 | inhibition at 100 µM (hERG (KCNH2)): 42%; Kp [12]: 0.54; fraction unbound [7]: 0.27; Vdss [13]: 2.6 L/kg; CL/F [14]: 52 mL/min/kg; Activity [15]: 31%; CLint scaled [8]: < 32 mL/min/kg; Kp [16]: 0.027; efflux ratio [17]: 10; CLint scaled [11]: 14 mL/min/kg; Kp [18]: 0.53; Ratio [19]: 1.15 |
| CN(C)C(=O)c1cccc(-c2nsc(NCC(C)(C)c3ccc(F)cc3)n2)c1 | 3100 nM | 2900 |  |  |
| Fc1ccc(Cc2nsc(NCCc3ccccc3)n2)cc1 |  | 23300 |  |  |
| NC(=O)c1nccc(-c2ccc(NCC3(c4ncccc4F)CCC3)nn2)n1 |  | > 49000 |  |  |
| NC(=O)c1ccn(-c2ccc(NCC3(c4ncccc4F)CCC3)nn2)c1 | 1100 nM | 900 | < 14 | IC50 [5]: 97000 nM; inhibition at 100 µM (hERG (KCNH2)): 27%; CL/F [6]: 73 mL/min/kg; fraction unbound [7]: 0.35; Activity [15]: 43%; CLint scaled [8]: 207 mL/min/kg; Vdss [9]: 2.4 L/kg; CLint scaled [11]: 26 mL/min/kg |
| NC(=O)c1cccc(-c2ccc(NCC3(c4cnccn4)CCC3)nn2)c1 |  | 46100 | < 7 |  |
| CC(C)(CNc1nc(-c2cccc(C(N)=O)c2)ns1)c1ccc(F)cc1 | 1400 nM | 500 | 11 | solubility thermodynamic [3]: < 27 µM |
| CN(CC1(c2ccccn2)CCC1)c1ccc(-c2cccc(C(N)=O)c2)nn1 |  | > 49000 |  |  |
| NC(=O)c1cnn(-c2cnc(NC[C@]3(c4ncccc4F)C[C@H](F)C3)nc2)c1 | 3300 nM | 1200 | < 14 |  |
| COCCCc1nsc(NCC(C)(C)c2ccc(F)cc2)n1 |  | 2500 |  |  |
| C#Cc1cnc2nc(O)n(C(CC)CC)c2n1 [TIRASEMTIV] |  |  |  | EC50 [20]: 6000 nM; fraction unbound [7]: 0.05; Kp [16]: 0.27; efflux ratio [17]: 0.9; Kp [18]: 0.3; Ratio [19]: 1.62 |
| NC(=O)c1cnc(-c2ccc(NCC3(c4ncccc4F)CCC3)nn2)s1 | 400 nM | 100 |  | IC50 [5]: > 100000 nM |
| NC(=O)c1cnn(-c2ccc(NCC3(c4ncccc4F)CC(F)(F)C3)nn2)c1 | 4000 nM | 2600 |  |  |
| NC(=O)c1cccc(-c2ccc(NCC3(c4ncccc4F)CCC3)nn2)c1 | 500 nM | 300 | 11 |  |
| NC(=O)c1cnn(-c2ccc(NC[C@]3(c4ncccc4F)C[C@H](F)C3)nn2)c1 | 1100 nM | 800 | < 14 | inhibition at 100 µM (hERG (KCNH2)): 16%; CL/F [6]: 115 mL/min/kg; fraction unbound [7]: 0.55; Activity [15]: 7%; CLint scaled [8]: 90 mL/min/kg; Vdss [9]: 2.6 L/kg; CLint scaled [11]: 30 mL/min/kg |
| CC(C)(CNc1ncns1)c1ccc(F)cc1 |  | 8400 | 30 |  |
| CC(C)(CNc1nc(-c2ccccc2)ns1)c1ccc(F)cc1 |  | 8900 |  |  |
| NC(=O)c1cccc(-c2ccc(NCC3(c4ccc(F)cc4)CCC3)nn2)c1 | 600 nM | 200 | 15 |  |

Reference: ChEMBL document CHEMBL4842386, “Discovery of Reldesemtiv, a Fast Skeletal Muscle Troponin Activator for the Treatment of Impaired Muscle Function” (J Med Chem, 2021)
